A value given as a limit tells only on which side of the number the result lay.

One data set addresses T1, human CD73 (Homo sapiens, UniProt P21589).
T1 construct: the catalytic domains of the enzymes were amplified and sub-cloned into the expression vector pACGP67 A/B; 9xHis (C); made in house; host or cells: Sf9 insect cells (baculovirus, pACGP67 A/B)
T1 sequence (P21589 27-549 limits assumed): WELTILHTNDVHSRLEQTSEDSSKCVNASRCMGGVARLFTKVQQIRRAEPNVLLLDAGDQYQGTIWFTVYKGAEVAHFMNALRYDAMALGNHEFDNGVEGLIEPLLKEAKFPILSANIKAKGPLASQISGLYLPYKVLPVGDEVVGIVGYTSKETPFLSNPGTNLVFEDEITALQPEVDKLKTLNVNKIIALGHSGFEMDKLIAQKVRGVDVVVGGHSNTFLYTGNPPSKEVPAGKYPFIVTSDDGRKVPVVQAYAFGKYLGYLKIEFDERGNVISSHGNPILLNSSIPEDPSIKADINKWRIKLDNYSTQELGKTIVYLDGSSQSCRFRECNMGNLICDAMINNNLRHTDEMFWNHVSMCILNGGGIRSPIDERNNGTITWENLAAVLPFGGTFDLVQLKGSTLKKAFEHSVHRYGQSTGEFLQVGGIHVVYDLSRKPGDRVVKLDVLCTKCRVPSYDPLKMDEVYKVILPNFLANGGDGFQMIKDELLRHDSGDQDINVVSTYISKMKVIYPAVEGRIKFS
In words: CD73 assay with [2,8-3H]AMP as radioactive substrate. The format is biochemical. As to conditions: for Ki: soluble human CD73, 5.0 µM [2,8-3H]AMP, read-out: Ki ± SEM. From the text: The cDNAs of the human enzymes NPP1, NPP3, NPP5, CD38 and CD73 (Genbank accession no. NM_006258, NM_005021, NM_021572, NM_ 001775, and NM_002526, respectively) were obtained from Origene (Rockville, USA). Soluble enzymes were produced as previously reported with some modifications ([Lee et al., 2015]; [Junker et al., 2019]). Briefly, the catalytic domains of the enzymes were amplified and sub-cloned into the expression vector pACGP67 A/B modified with the addition of 9 x histidine tag (His-tag) at the C-terminus (except for NPP1). The plasmids were transfected in Sf9 insect cells using Cellfectin™ II Reagent (Thermo Fisher Scientific, MA, USA) and ProEasy™ baculovirus linearized DNA (Cat.#A10S, AB Vector, LLC). Protein expression was conducted for 48 h at 27°C. The signal peptide sequence of the expression vector shuttled the proteins into the supernatant. The supernatant medium was collected, and the enzymes were purified using HisPur™ Ni^2+-NTA spin columns according to the manufacturer’s protocol. The protein concentration was determined by the method previously described by [Lowry et al. (1951)].
The assay was performed as previously described ([Freundlieb et al., 2014]). Briefly, it contained with 0.09 µg/ml of soluble human CD73 recombinantly expressed in Sf9 insect cells as described ([Junker et al., 2019]), the respective test compound, and 5.0 µM [2,8-^3H]AMP (specific activity 7.4 x 108 Bq/mmol, 20 mCi/mmol) as radioactive substrate in assay buffer consisting of 25 mM Tris buffer, 140 mM NaCl, 25 mM NaH2PO4 pH 7.4. The enzymatic reaction was performed for 25 min at 37°C in a shaking water bath. Then, 500 µl of cold precipitation buffer (100 mM LaCl3, 100 mM sodium acetate, pH 4.0) were added to precipitate free phosphate and unconverted [2,8-^3H]AMP. After 30 min on ice, filtration through GF/B glass fiber filters using a cell harvester was used to separate AMP from adenosine. After washing each reaction vial three times with 400 µl of cold (4°C) demineralized water, aliquots of the filtrate were taken, and 5 ml of scintillation cocktail (ULTIMA Gold XR9) was added. The amount of formed adenosine was quantified by liquid scintillation counting (TRICARB 2900 TR, Packard/PerkinElmer).

Data set [1] in a line: Metabolic stability in human liver microsomes. The format is in vitro ADME. As to conditions: both sexes; human liver microsomes 0.5 mg/mL; compound 1 μM. How it is done:
The experiments were performed by Pharmacelsus, Saarbrücken, Germany (https://www.pharmacelsus.com/services/in-vitro-adme/) using human and mouse liver microsomes (0.5 mg/mL, mixed gender, pooled). Compounds were tested at a concentration of 1 μM. Data points represent means of two separate experiments performed in duplicates.

`CCCCNc1nc2c(NC)ncnc2n1[C@@H]1O[C@H](COP(=O)(O)OP(=O)(O)C(Br)(Br)P(=O)(O)O)[C@@H](O)[C@H]1O` [Compound 33, (Dibromo((((((2R,3S,4R,5R)-5-(8-(butylamino)-6-(methylamino)-9H-purin-9-yl)-3,4-dihydroxy-tetrahydrofuran-2-yl)methoxy)(hydroxy)phosphoryl)oxy)-(hydroxy)phosphoryl)methyl)-phosphonic Acid]: on human CD73 (CD73 Ki vs CD39 Ki), the “fold higher potency at CD73 compared to CD39” value worked out at 8 fold. Also, the inhibition constant (Ki) on human CD73 was 185 ± 74 nM. The half-life at 1 μM in data set [1] was below 1 min.

As to `CCCCSc1nc2c(N)ncnc2n1[C@@H]1O[C@H](COP(=O)(O)OP(=O)(O)C(Br)(Br)P(=O)(O)O)[C@@H](O)[C@H]1O` [Compound 31, (((((((2R,3S,4R,5R)-5-(6-Amino-8-(butylthio)-9H-purin-9-yl)-3,4-dihydroxytetrahydrofuran-2-yl)methoxy)(hydroxy)-phosphoryl)oxy)(hydroxy)phosphoryl)dibromomethyl)-phosphonic Acid], the inhibition constant Ki at human CD73 was determined as 831 ± 274 nM. The compound further showed a half-life at 1 μM in data set [1] below 1 min.

For `CCN(CC)c1ncnc2c1ncn2[C@@H]1O[C@H](COP(=O)(O)OP(=O)(O)C(Br)(Br)P(=O)(O)O)[C@@H](O)[C@H]1O` [ARL67156, (Dibromo((((((2R,3S,4R,5R)-5-(6-(diethylamino)-9H-purin-9-yl)-3,4-dihydroxytetrahydrofuran-2-yl)methoxy)-(hydroxy)-phosphoryl)oxy)(hydroxy)phosphoryl)methyl)-phosphonic Acid, reference compound], the Ki on human CD73 was found to be 451 ± 121 nM. In data set [1], this compound had a half-life at 1 μM below 1 min.

As a reminder, the Ki is a dissociation constant, usually derived from enzyme kinetics or from competition with a known ligand. Broadly, the half-life is the time in which the quantity being followed falls by half. A high value points to slow loss.

These data come from publication PMC7508162 (Frontiers in Pharmacology, 2020).
